Experimental data from patent US20210363152A1, “AMINOAZINE AMIDES” (Hoffmann-La Roche Inc., priority 2018, published 2021).

molecular target: T1, Autotaxin enzyme (ATX) (Homo sapiens, UniProt Q13822); assay: In vitro ATX assay (enzymatic ATX inhibition, LPC 14:0 substrate, choline oxidase/HRP absorbance readout); type: biochemical; conditions: 0.3 mM LPC 14:0, 37° C., 4 hours, absorbance 555 nm
T1 construct: purchased Echelon Biosciences, Inc. E-4000
Procedure, shortened: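 Human ATX (10 ng/mL as added) in pH 9.0 Tris buffer with NaCl, MgCl2, CoCl2 and Triton X-100 was preincubated with compound for 15 min at 37 °C. LPC 14:0 (0.3 mM final) was then hydrolysed for 4 h at 37 °C. Released choline was detected by choline oxidase/HRP with 4-AAP/TOOS, read after 15 min RT as absorbance at 555 nm, giving banded IC50 values.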

Compound | IC50
CN1CCC2(CCN2C(=O)c2cnc(NCc3cc(OC(F)(F)F)cc(C4CC4)c3)nc2)C1 (centres unmarked) [Example 155, (2-((3-Cyclopropyl-5-(trifluoromethoxy)benzyl)amino)pyrimidin-5-yl)(6-methyl-1,6-diazaspiro[3.4]octan-1-yl)methanone] | < 100 nM
CN1CCCC2(CCN2C(=O)c2cnc(NCc3cc(OC(F)(F)F)cc(C4CC4)c3)nc2)C1 (centres unmarked) [Example 156, (2-((3-Cyclopropyl-5-(trifluoromethoxy)benzyl)amino)pyrimidin-5-yl)(6-methyl-1,6-diazaspiro[3.5]nonan-1-yl)methanone] | < 100 nM
CN1CC2(CCCN2C(=O)c2cnc(NCc3cc(OC(F)(F)F)cc(C4CC4)c3)nc2)C1 [Example 157, (2-((3-Cyclopropyl-5-(trifluoromethoxy)benzyl)amino)pyrimidin-5-yl)(2-methyl-2,5-diazaspiro[3.4]octan-5-yl)methanone] | < 100 nM
O=C(c1cnc(NCc2cc(OC(F)(F)F)cc(N3CCC3)c2)nc1)N1CCC12COC2 [Example 158, (2-((3-(Azetidin-1-yl)-5-(trifluoromethoxy)benzyl)amino)pyrimidin-5-yl)(6-oxa-1-azaspiro[3.3]heptan-1-yl)methanone] | < 100 nM
CCOc1cc(CNc2ncc(C(=O)N3CCC34COC4)cn2)cc(OC(C)C)c1 [Example 159, (2-((3-Ethoxy-5-isopropoxybenzyl)amino)pyrimidin-5-yl) (6-oxa-1-azaspiro[3.3]heptan-1-yl)methanone] | < 100 nM
CCOc1cc(CNc2ncc(C(=O)N3CCC3C(C)(C)O)cn2)cc(OC(C)C)c1 (centres unmarked) [Example 160, (2-((3-Ethoxy-5-isopropoxybenzyl)amino)pyrimidin-5-yl) (2-(2-hydroxypropan-2-yl)azetidin-1-yl)methanone] | < 100 nM
CC(C)Oc1ccc2c(c1)CC(Nc1ncc(C(=O)N3CCC34COC4)cn1)C2 (centres unmarked) [Example 161, (2-((5-Isopropoxy-2,3-dihydro-1H-inden-2-yl)amino)pyrimidin-5-yl)(6-oxa-1-azaspiro[3.3]heptan-1-yl)methanone] | 100 to 1000 nM
CCOc1ccc2c(c1)CC(Nc1ncc(C(=O)N3CCC34COC4)cn1)C2 (centres unmarked) [Example 162, (2-((5-Ethoxy-2,3-dihydro-1H-inden-2-yl)amino)pyrimidin-5-yl)(6-oxa-1-azaspiro[3.3]heptan-1-yl)methanone] | 100 to 1000 nM
